{"source": "patent US10131690B2", "about": "“C6S specific transporter molecules” (PHI PHARMA SA, priority 2014, dated 2018)", "key": {"[1]": {"system": "heparan sulfate (HS), chondroitin-4-sulfate (C4S), keratin sulfate (KS), HA", "test": "modified ELISA, binding to C6S compared with other proteoglycans", "conditions": "KS (FIG. 5), HS and HA (FIG. 6B)", "protocol": "(§1) The binding of the nine-mer peptides of the invention to C6S as predicted by the models, in particular, as compared to the binding to other proteoglycans was tested using a modified ELISA protocol. ELISA plates were coated overnight with 1 mg/ml of heparin sulfate (HS), chondroitin-4-sulfate (C4S), chondroitin-6-sulfate (C6S) or keratin sulfate (KS) in PBS. The wells were then washed with PBS and incubated for 1 hour at room temperature with 1 mg/ml of an exemplary peptide of the invention having the sequence RYKvFIKYRh (“RYK-C6S”; SEQ ID NO:7) or a standard TAT peptide. The plates were then thoroughly washed with PBS and subsequently photographed with a LUMASCOPE™ luminescent microscope. Images were then quantified using the ImageJ software (FIG. 5).\n(§2) The impact of sequence variation on specific binding was also investigated with select peptides using the above described modified ELISA."}, "MDCK cells": {"system": "MDCK cells", "test": "viability of MDCK cell cultures by trypan blue exclusion", "assay_type": "cell-based", "conditions": "96 hour incubation, 0.5 μM to 10 μM, FIG. 9", "protocol": "The activity of peptides of the invention as targeting moieties was tested in vitro in preliminary studies using cells lines expressing C6S. The nucleoside analog 3′ amino deoxythymidine (3′AdT) was conjugated to the amino-terminus of the peptide “RYK” (RYKvFIKYRh (SEQ ID NO:8)) using a single D-Glu residue (3′AdT-e-RYK).\nConfluent cultures of MDCK were passaged at 1/20 dilution and exponentionally growing cells were incubated for 96 hours with concentrations of the nucleoside analog conjugates ranging from 0.5 μM to 10 μM. Viability was subsequently assessed using trypan blue exclusion."}, "[2]": {"system": "chondroitin-6-sulfate (C6S)", "test": "modified ELISA, binding of peptides to plate-coated C6S", "conditions": "plates coated with 1 mg/ml C6S; 1 mg/ml peptide, 1 hour, room temperature; FIG. 5, 6A, 6B", "protocol": "as §1\nThe same modified ELISA protocol was used to examine the impact on the specific binding to C6S by modifying the freely-selectable positions 2, 4, 6, 8 and (5 or 7).\nas §2"}, "[3]": {"test": "stability in fetal calf serum (estimation of in vivo stability)", "assay_type": "in vitro ADME", "conditions": "37° C.; for degradation in fetal calf serum: 6 hr", "protocol": "The stability of peptides of the invention was estimated by mixing the peptides with fetal calf serum and incubating at 37° C. for 6 hr. Samples were tested at both 0 and 6 hours."}}, "note": "Where a SMILES comes first, the peptide text is derived from it. Where no end group is shown, it is not given here. [ ]: non-standard residue; d: D form. 3'AdT = not defined here", "data": [{"molecule": "RGKPRFYQR", "values": [{"measurement": "selectivity of binding for C6S over other proteoglycans", "setting": "[1]", "result": "either eliminated binding activity to any proteoglycan or eliminated the specificity to C6S"}]}, {"molecule": "D-linked conjugate: 3′AdT conjugated to the amino-terminus of the peptide RYK (RYKvFIKYRh) using a single D-Glu residue ({3'AdT}-[dE]RYK[dV]FIKYR[dH]; reading uncertain; also: printed as RYKvFIKYRh)", "values": [{"measurement": "concentration with substantial effects on viability", "setting": "MDCK cells", "result": "≥ 0.5", "unit": "µM"}]}, {"molecule": "RKKRRQRR (Artificial TAT peptide control) [standard TAT peptide]", "values": [{"measurement": "binding to C6S", "setting": "[2]", "result": "increases in binding that were likely non-selective"}]}, {"molecule": "CC[C@H](C)[C@H](NC(=O)[C@H](Cc1ccccc1)NC(=O)[C@H](NC(=O)[C@H](CCCCN)NC(=O)[C@H](Cc1ccc(O)cc1)NC(=O)[C@@H](N)CCCNC(=N)N)C(C)C)C(=O)N[C@@H](CCCCN)C(=O)N[C@@H](Cc1ccc(O)cc1)C(=O)N[C@@H](CCCNC(=N)N)C(=O)N[C@H](Cc1c[nH]cn1)C(=O)O", "note": "[RYK-C6S, RYKvFIKYRh] (H-RYK[dV]FIKYR[dH]-OH; N-terminus and C-terminus assumed)", "values": [{"measurement": "degradation in fetal calf serum", "setting": "[3]", "result": "no degradation"}, {"measurement": "remaining at 6 h", "setting": "[3]; fetal calf serum, 6 hours", "result": 100, "unit": "%"}]}, {"molecule": "RRRRRRRRR [pure arginine 9-mer]", "values": [{"measurement": "binding to C6S", "setting": "[2]", "result": "increases in binding that were likely non-selective"}]}, {"molecule": "RYFvRIKYR (RYF[dV]RIKYR) [control peptide, replacement of Lys3 with a Phe]", "values": [{"measurement": "binding to C6S", "setting": "[2]", "result": "eliminated binding to C6S"}]}, {"molecule": "N=C(N)NCCC[C@H](NC(=O)[C@H](Cc1ccc(O)cc1)NC(=O)[C@H](CCCCN)NC(=O)[C@H](Cc1c[nH]c2ccccc12)NC(=O)[C@H](CO)NC(=O)CNC(=O)[C@H](CCCCN)NC(=O)[C@H](Cc1ccccc1)NC(=O)[C@@H](N)CCCNC(=N)N)C(=O)O", "note": "[RFKGSWKYR] (H-RFKGSWKYR-OH; N-terminus and C-terminus assumed)", "values": [{"measurement": "degradation in fetal calf serum", "setting": "[3]", "result": "completely degraded"}]}, {"molecule": "RYKvFIKPRh (RYK[dV]FIKPR[dH]) [control peptide with proline at position 8]", "values": [{"measurement": "binding to C6S", "setting": "[2]", "result": "eliminated binding activity"}]}]}
